Here are results for nine molecules from paper PMC10531311, “Anti-Inflammatory Activities of 8-Benzylaminoxanthines Showing High Adenosine A2A and Dual A1/A2A Receptor Affinity” (International Journal of Molecular Sciences, 2023).

Marks after values point to notes of the source that are not given here.

One data set has as its target T1, human adenosine A2BR (Homo sapiens, UniProt P29275).
T1 construct: expressed in transfected cells; host or cells: CHO cells
T1 sequence (P29275 1-332): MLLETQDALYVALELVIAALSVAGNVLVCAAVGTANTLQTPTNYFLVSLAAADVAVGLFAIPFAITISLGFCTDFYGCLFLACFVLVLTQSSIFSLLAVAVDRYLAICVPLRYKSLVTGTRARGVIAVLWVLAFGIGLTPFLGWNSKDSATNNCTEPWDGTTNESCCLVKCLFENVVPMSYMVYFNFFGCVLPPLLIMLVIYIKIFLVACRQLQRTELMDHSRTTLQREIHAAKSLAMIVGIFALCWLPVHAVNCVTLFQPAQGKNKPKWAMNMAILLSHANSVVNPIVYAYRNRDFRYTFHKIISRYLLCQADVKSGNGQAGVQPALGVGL
Nature of the data set: Radioligand binding at human adenosine A2B receptor vs. [3H]PSB-603. The following applies: for inhibition at 1 µM: CHO cells, read-out: A2BR vs. [³H]PSB-603 % Inhibition ± SEM at 1 µM; for Ki: human recombinant receptor in CHO cells, read-out: A2BR vs. [³H]PSB-603 Ki ± SEM. As to the method: (§1) Affinities for adenosine receptors were evaluated in radioligand binding assays as previously described. Human adenosine receptors were stably expressed in CHO cells. The following radioligands were used: [^3H]2-chloro-N^6-cyclopentyladenosine ([^3H]CCPA) for A1R; [^3H]3-(3-hydroxypropyl)-7-methyl-8-(m-methoxystyryl)-1-propargylxanthine ([^3H]MSX-2) for A2AR; [^3H]8-(4-(4-(4-chlorophenyl)piperazine-1-sulfonyl)phenyl)-1-propylxanthine ([^3H]PSB-603) for A2BR; [^3H]phenyl-8-ethyl-4-methyl-(8R)-4,5,7,8-tetrahydro-1H-imidazo [2,1-i]purine-5-one ([^3H]PSB-11) for A3R. Initially, compounds were tested at a concentration of 1 µM. […] At least three independent experiments were performed. Data were analyzed using GraphPad PRISM version 5.0 or higher (Graph Pad, San Diego, CA, USA). Ki were calculated using the Cheng–Prusoff equation.

In another data set the target is T2, human adenosine A3R (Homo sapiens, UniProt P0DMS8).
T2 construct: expressed in transfected cells; host or cells: CHO cells
T2 sequence (P0DMS8 1-318): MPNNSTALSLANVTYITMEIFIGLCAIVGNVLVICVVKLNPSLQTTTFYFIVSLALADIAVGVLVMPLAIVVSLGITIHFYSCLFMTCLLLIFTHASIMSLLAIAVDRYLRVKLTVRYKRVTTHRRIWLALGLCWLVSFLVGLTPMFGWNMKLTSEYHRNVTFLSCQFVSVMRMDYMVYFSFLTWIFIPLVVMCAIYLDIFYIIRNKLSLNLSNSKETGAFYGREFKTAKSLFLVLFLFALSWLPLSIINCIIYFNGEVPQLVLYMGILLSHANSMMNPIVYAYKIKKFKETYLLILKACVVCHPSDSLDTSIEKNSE
In words: Radioligand binding at human adenosine A3 receptor vs. [3H]PSB-11. The following applies: for inhibition at 1 µM: CHO cells, read-out: A3R vs. [H³]PSB-11 % Inhibition ± SEM at 1 µM; for Ki: human recombinant receptor in CHO cells, read-out: A3R vs. [H³]PSB-11 Ki ± SEM. Here is the method:
as §1

A further data set has as its target T3, human adenosine A2AR (Homo sapiens, UniProt P29274).
T3 construct: expressed in transfected cells; host or cells: CHO cells
Nature of the data set: Radioligand binding at human adenosine A2A receptor vs. [3H]MSX-2. The following applies: for A2AR vs. [³H]MSX-2 % Inhibition ± SEM at 1 µM: CHO cells; for Ki: human recombinant receptor in CHO cells, read-out: A2AR vs. [³H]MSX-2 Ki ± SEM. As to the method:
as §1

Another data set concerns the target T4, human adenosine A1R (Homo sapiens, UniProt P30542).
T4 construct: expressed in transfected cells; host or cells: CHO cells
T4 sequence (P30542 1-326): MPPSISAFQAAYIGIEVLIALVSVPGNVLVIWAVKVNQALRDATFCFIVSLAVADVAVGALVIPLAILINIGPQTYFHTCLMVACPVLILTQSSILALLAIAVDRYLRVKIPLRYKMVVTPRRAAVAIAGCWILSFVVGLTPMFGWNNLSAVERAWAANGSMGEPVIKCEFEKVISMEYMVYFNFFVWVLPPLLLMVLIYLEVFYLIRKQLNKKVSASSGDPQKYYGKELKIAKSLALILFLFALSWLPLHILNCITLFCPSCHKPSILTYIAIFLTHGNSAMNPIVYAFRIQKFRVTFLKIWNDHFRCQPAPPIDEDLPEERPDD
Nature of the data set: Radioligand binding at human adenosine A1 receptor vs. [3H]CCPA. The settings on record: for inhibition at 1 µM: CHO cells, read-out: A1R vs. [³H]CCPA % Inhibition ± SEM at 1 µM; for Ki: human recombinant receptor in CHO cells, read-out: A1R vs. [³H]CCPA Ki ± SEM. Here is the method:
as §1

In a further data set the test system is formalin test in mice. Nature of the data set: Formalin test. The data set is classed as in vivo, albino Swiss mice. The following applies: mice. Here is the method: Injection of formalin into the dorsal surface of the hind paw of a mouse produces a biphasic nocifensive behavioral response; i.e., licking, biting, flinching or lifting of the injected paw. The acute (neurogenic) nociceptive phase lasts for the first 5 min and is followed by a period of little activity for the next 10 min. The first phase of the test is directly associated with nociceptor stimulation and the development of neurogenic inflammation. The second (late) phase occurs between 15 and 30 min after formalin injection. The second phase depends on peripheral inflammation and the central sensitization of pain. Since this phase reflects the activation of inflammatory processes, the compounds active in this phase of the experiment also have an anti-inflammatory effect. The tested compounds 19, 22 and 24, were investigated in three doses: 10, 20 and 40 mg/kg bw. ASA (acetylsalicylic acid) was used as a reference compound and administered in doses of 50, 100 and 200 mg/kg. […] The strongest effect in this assay was produced by 24. […] In addition, this anti-nociceptive and anti-inflammatory effect was approximately 13.8 times greater than that observed for the reference compound (ASA). […] ASA also attenuated statistically significant pain responses in the late phases of the formalin test. […] The in vivo experiments were carried out on male albino Swiss mice weighing 18–26 g and male Wistar rats weighing 150–180 g. The animals were housed in constant temperature facilities exposed to a 12:12 light-dark cycle and maintained on a standard pellet diet and tap water given ad libitum. The control and experimental groups consisted of 6–8 animals each. The investigated compounds were intraperitoneally (ip) administered in the form of a suspension in 0.5% methylcellulose. Control animals received the equivalent volume of solvent. All procedures were conducted according to the guidelines of ICLAS (International Council on Laboratory Animals Science) and were approved by the Local Ethics Committee of the Jagiellonian University in Kraków. The mice were pretreated with the test compound or the vehicle and were allowed to acclimate in Plexiglas observation chambers (20 × 30 × 15 cm) for 30 min before the test. Then, 20 μL of a 5% formalin solution was intraplantarly injected into the right hind paw using a 26-gauge needle. Immediately after formalin injection, the animals were individually placed into glass beakers and were observed during the next 30 min. Time (in seconds) spent on licking or biting the injected paw in selected intervals, 0–5, 15–20, 20–25 and 25–30 min, was measured in each experimental group and was an indicator of nociceptive behavior [41]. The ED50 values and their confidence limits were estimated by the method of Litchfield and Wilcoxon.

T3 sequence (P29274 whole entry): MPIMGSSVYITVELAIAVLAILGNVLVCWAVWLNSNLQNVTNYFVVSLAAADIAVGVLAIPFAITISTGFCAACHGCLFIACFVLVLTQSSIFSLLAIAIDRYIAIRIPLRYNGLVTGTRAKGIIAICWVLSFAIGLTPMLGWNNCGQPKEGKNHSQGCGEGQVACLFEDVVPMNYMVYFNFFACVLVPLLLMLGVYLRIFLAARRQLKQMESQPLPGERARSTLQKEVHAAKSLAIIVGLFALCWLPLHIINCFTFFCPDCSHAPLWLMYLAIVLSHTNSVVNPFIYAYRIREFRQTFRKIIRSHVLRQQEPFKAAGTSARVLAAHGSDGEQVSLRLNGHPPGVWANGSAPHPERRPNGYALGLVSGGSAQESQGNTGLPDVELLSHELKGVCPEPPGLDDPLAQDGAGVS

As a reminder, the inhibition is the drop in the measured response relative to a control, in per cent. The Ki is a dissociation constant, usually derived from enzyme kinetics or from competition with a known ligand. Usually melting point stands for the temperature of the solid-liquid transition. For the molecule `CCCCCCn1c(=O)c2c(nc(NCc3ccccc3Cl)n2C)n(C)c1=O` [compound 8, 8-((2-Chlorobenzyl)amino)-1-hexyl-3,7-dimethyl-3,7-dihydro-1H-purine-2,6-dione], the melting point lay within 191 to 194 °C. Besides, on human adenosine A2BR, the inhibition at 1 µM was found to be 13% and the Ki was > 1000 nM. Besides, on human adenosine A3R, the inhibition at 1 µM worked out at 31% and the Ki is > 1000 nM. Besides, at human adenosine A2AR, the “A2AR vs. [³H]MSX-2 % Inhibition ± SEM at 1 µM” value came out at 9 ± 8% and the Ki was > 1000 nM. Moreover, on human adenosine A1R, the inhibition at 1 µM is 17% and the Ki was > 1000 nM.

Consider `CCCCn1c(=O)c2c(nc(NCc3ccccc3Cl)n2C)n(C)c1=O` [compound 6, 1-Butyl-8-((2-chlorobenzyl)amino)-3,7-dimethyl-3,7-dihydro-1H-purine-2,6-dione], for which the melting point lay within 181 to 183 °C. On human adenosine A2BR, the inhibition at 1 µM worked out at 32% and the Ki was > 1000 nM. Further, at human adenosine A3R, the inhibition at 1 µM was found to be 11% and the Ki is > 1000 nM. At human adenosine A2AR, the Ki came out at 318 ± 141 nM. Also, on human adenosine A1R, the inhibition at 1 µM is 21% and the Ki is > 1000 nM.

In turn, `Cn1c(NCc2ccccc2Cl)nc2c1c(=O)n(Cc1ccccc1)c(=O)n2C` [compound 9] registered a melting point of 205 to 208 °C. On human adenosine A2BR, the inhibition at 1 µM is 9% and the Ki is > 1000 nM. On human adenosine A3R, the inhibition at 1 µM worked out at 24% and the Ki is > 1000 nM. For the same molecule, the Ki at human adenosine A2AR was 323 ± 150 nM. Moreover, at human adenosine A1R, the inhibition at 1 µM stood at 23% and the Ki is > 1000 nM.

Molecule `Cn1c(NCc2ccccc2Cl)nc2c1c(=O)n(Cc1ccc(Cl)c(Cl)c1)c(=O)n2C` [compound 11, 8-((2-Chlorobenzyl)amino)-1-(3,4-dichlorobenzyl)-3,7-dimethyl-3,7-dihydro-1H-purine-2,6-dione] came in with a melting point of 198 to 203 °C. Besides, at human adenosine A2BR, the inhibition at 1 µM stood at 4% and the Ki was > 1000 nM. In addition, on human adenosine A3R, the inhibition at 1 µM was determined as 40% and the Ki was > 1000 nM. For the same molecule, at human adenosine A2AR, the “A2AR vs. [³H]MSX-2 % Inhibition ± SEM at 1 µM” value was determined as 23 ± 7% and the Ki is > 1000 nM. In addition, at human adenosine A1R, the inhibition at 1 µM turned out to be 10% and the Ki is > 1000 nM.

The molecule `C#CCn1c(=O)c2c(nc(NCc3c(F)cccc3Cl)n2C)n(C2CC2)c1=O` [compound 29, 8-((2-Chloro-6-fluorobenzyl)amino)-3-cyclopropyl-7-methyl-1-(prop-2-yn-1-yl)-3,7-dihydro-1H-purine-2,6-dione] gave a melting point of 186 to 187 °C. On human adenosine A2BR, the inhibition at 1 µM was found to be 16% and the Ki is > 1000 nM. Moreover, on human adenosine A3R, the inhibition at 1 µM was 16% and the Ki is > 1000 nM. Also, the inhibition constant (Ki) at human adenosine A2AR worked out at 204 ± 38 nM. Moreover, the Ki at human adenosine A1R came out at 78 ± 9 nM.

Take `CCCCCn1c(=O)c2c(nc(NCc3ccccc3Cl)n2C)n(C)c1=O` [compound 7, 8-((2-Chlorobenzyl)amino)-3,7-dimethyl-1-pentyl-3,7-dihydro-1H-purine-2,6-dione]: the melting point lay within 177 to 180 °C. Further, on human adenosine A2BR, the inhibition at 1 µM amounted to 41% and the Ki was > 1000 nM. Also, at human adenosine A3R, the inhibition at 1 µM was found to be 13% and the Ki was > 1000 nM. On human adenosine A2AR, the “A2AR vs. [³H]MSX-2 % Inhibition ± SEM at 1 µM” value was found to be 38 ± 4% and the Ki was > 1000 nM. At human adenosine A1R, the inhibition at 1 µM was found to be 35% and the Ki is > 1000 nM.

The molecule `C#CCn1c(=O)c2c(nc(NCc3ccccc3F)n2C)n(C2CC2)c1=O` [compound 28, 3-Cyclopropyl-8-((2-fluorobenzyl)amino)-7-methyl-1-(prop-2-yn-1-yl)-3,7-dihydro-1H-purine-2,6-dione] gave a melting point of 190 to 192 °C. For the same molecule, at human adenosine A2BR, the inhibition at 1 µM was 14% and the Ki is > 1000 nM. Also, on human adenosine A3R, the inhibition at 1 µM is -2% and the Ki was > 1000 nM. For the same molecule, on human adenosine A2AR, the Ki was determined as 386 ± 61 nM. Moreover, on human adenosine A1R, the Ki amounted to 166 ± 65 nM.

Consider `Cn1c(NCc2ccccc2Cl)nc2c1c(=O)n(Cc1ccc(Cl)cc1)c(=O)n2C` [compound 10, 1-(4-Chlorobenzyl)-8-((2-chlorobenzyl)amino)-3,7-dimethyl-3,7-dihydro-1H-purine-2,6-dione], for which the melting point was 228 to 230 °C. In addition, at human adenosine A2BR, the inhibition at 1 µM is 14% and the Ki was > 1000 nM. Also, at human adenosine A3R, the inhibition at 1 µM came to 31% and the Ki was > 1000 nM. In addition, on human adenosine A2AR, the Ki was > 1000 nM. At human adenosine A1R, the inhibition at 1 µM was found to be 12% and the Ki was > 1000 nM.

As a reminder, the ED50 is the dose at which the effect has come halfway, by size or by number of responders. Regarding `CC(=O)Oc1ccccc1C(=O)O` [ASA, acetylsalicylic acid, reference compound], the ED50 with formalin test in mice (Mus musculus, II (late) phase, method of Litchfield and Wilcoxon, read-out: calculated ED50 in the formalin test) was 126 mg/kg. Besides, in the data set with formalin test in mice (50 mg/kg), the “Early Phase Inhibition (%)” value is recorded as 12.4%, the “Late Phase Inhibition (%)” value stood at 10.0%, the “Licking of the Hind Paw Early Phase (0–5 min) Mean ± SEM” value (from here on “Licking … (0–5 min) Mean ± SEM”) was determined as 59.8 ± 6.3 s and the “Licking of the Hind Paw Late Phase (15–30 min) Mean ± SEM” value (shortened to “Licking … (15–30 min) Mean ± SEM”) was determined as 108.7 ± 13.8 s. Moreover, in the data set with formalin test in mice (100 mg/kg), the “Early Phase Inhibition (%)” value amounted to 14.3%, the “Late Phase Inhibition (%)” value came to 50.0%, the “Licking … (0–5 min) Mean ± SEM” value amounted to 58.5 ± 4.5 s and the “Licking … (15–30 min) Mean ± SEM” value was 60.3 ± 9.5 ^c sec. Also, in the data set with formalin test in mice (200 mg/kg), the “Late Phase Inhibition (%)” value turned out to be 66.3%, the “Licking … (0–5 min) Mean ± SEM” value turned out to be 62.0 ± 8.6 s and the “Licking … (15–30 min) Mean ± SEM” value is recorded as 40.6 ± 14.0 ^c sec.
